Results published in patent publication US9856279B2 (AGIOS PHARMACEUTICALS, INC, priority 2011, dated 2018).

Experiments:
U87MG cells = experiment: Cellular assay for IDH1m inhibitors: inhibition of 2-HG production (LC-MS, 48 hours) in U87MG cells; format: cell-based; details: Homo sapiens, U-87 MG, inhibition of 2-HG production, U87R132H cells; read-out: U87R132H IC50
Summary of the method: (§1)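 Each cell line is plated at 5000 cells/well in DMEM with 10% FBS and left overnight at 37 °C. Test compounds are then added for 48 h, after which 2-HG in the medium is determined by LC-MS; IC50 reflects 50% reduction compared with control.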

IDH1 R132H = IDH1 R132H (Homo sapiens, UniProt O75874, R132H); experiment: Assay for IDH1 R132H inhibitors (NADPH/aKG, resazurin detection); format: biochemical; details: enzyme assay of Example 12; read-out: IDH1R132H IC50
Sequence of IDH1 R132H (O75874 whole entry R132H): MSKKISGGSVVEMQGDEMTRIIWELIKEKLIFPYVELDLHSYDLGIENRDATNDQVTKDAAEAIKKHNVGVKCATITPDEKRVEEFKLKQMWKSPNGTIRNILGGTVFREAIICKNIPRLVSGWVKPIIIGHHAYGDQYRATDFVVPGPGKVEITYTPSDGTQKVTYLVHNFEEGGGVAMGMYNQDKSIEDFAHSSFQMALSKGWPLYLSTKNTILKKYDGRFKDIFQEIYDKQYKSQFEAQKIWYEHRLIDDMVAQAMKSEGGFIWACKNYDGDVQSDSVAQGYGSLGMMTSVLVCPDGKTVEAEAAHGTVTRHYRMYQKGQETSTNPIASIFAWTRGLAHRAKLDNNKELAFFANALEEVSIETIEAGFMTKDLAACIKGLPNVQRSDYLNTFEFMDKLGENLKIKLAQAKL
Summary of the method: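 Read-out is resorufin fluorescence (Ex544/Em590) 5 min after adding a 30 μM resazurin detection mix. Before that, mutant enzyme (0.2 μg/ml in its mix) ran 50 min at room temperature with compound, 8 uM NADPH and 2 mM aKG (mix levels) in Tris pH 7.5 with NaCl, MgCl2, BSA.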

HT1080 cells = experiment: Cellular assay for IDH1m inhibitors: inhibition of 2-HG production (LC-MS, 48 hours) in HT1080 cells; format: cell-based; details: Homo sapiens, HT-1080; inhibition of 2-HG production, HT1080 cells; read-out: HT1080 IC50
Summary of the method: as §1

SMILES | IC50 (U87MG cells) | IC50 (IDH1 R132H) | IC50 (HT1080 cells)
N#Cc1cc(Oc2ccnc(Cl)c2)c(C2CC2)nc1N1CCN(C(=O)CCO)[C@H](C2CC2)C1 [Compound 694, (R)-5-(2-chloropyridin-4-yloxy)-6-cyclopropyl-2-(3-cyclopropyl-4-(3-hydroxypropanoyl)piperazin-1-yl) nicotinonitrile] | < 500 nM | < 500 nM | 500 to 1000 nM
COCCC(=O)N1CCN(c2nc(C3CC3)c(Oc3ccnc(Cl)c3)cc2C#N)C[C@H]1C1CC1 [Compound 695, (R)-5-((2-chloropyridin-4-yl)oxy)-6-cyclopropyl-2-(3-cyclopropyl-4-(3-methoxypropanoyl)piperazin-1-yl)nicotinonitrile] | < 500 nM | < 500 nM | < 500 nM
C=Cc1cnnc(-c2cc(C#N)c(N3CCN(C(=O)C4CC4)[C@H](C4CC4)C3)nc2C2CC2)c1 [Compound 696, (R)-2-(4-(cyclopropanecarbonyl)-3-cyclopropylpiperazin-1-yl)-6-cyclopropyl-5-(5-vinylpyridazin-3-yl)nicotinonitrile] | < 500 nM | < 500 nM | < 500 nM
C=Cc1cc(Cc2cc(C#N)c(N3CCN(C(=O)CCO)[C@H](C4CC4)C3)nc2C2CC2)ccn1 [Compound 697, (R)-6-cyclopropyl-2-(3-cyclopropyl-4-(3-hydroxypropanoyl)piperazin-1-yl)-5-((2-vinylpyridin-4-yl)methyl)nicotinonitrile] | < 500 nM | < 500 nM | < 500 nM
C=Cc1cc(Nc2cc(C#N)c(N3CCN(C(=O)CCO)[C@H](C)C3)nc2C2CC2)c2ccncc2n1 [Compound 698, (R)-6-cyclopropyl-2-(4-(3-hydroxypropanoyl)-3-methylpiperazin-1-yl)-5-((2-vinyl-1,7-naphthyridin-4-yl)amino)nicotinonitrile] | < 500 nM | < 500 nM | < 500 nM
C=CC(=O)N(c1ccncc1)c1cc(C#N)c(N2CCN(C(=O)CCOC)[C@H](C)C2)nc1C1CC1 [Compound 702, (R)—N-(5-cyano-2-cyclopropyl-6-(4-(3-methoxypropanoyl)-3-methylpiperazin-1-yl)pyridin-3-yl)-N-(pyridin-4-yl) acryl amide] | 1000 to 10000 nM | < 500 nM | 1000 to 10000 nM
C=Cc1cc(COc2cc(C#N)c(N3CCN(C(=O)CCOC)[C@H](C)C3)nc2C2CC2)ccn1 [Compound 703, (R)-6-cyclopropyl-2-(4-(3-methoxypropanoyl)-3-methylpiperazin-1-yl)-5-((2-vinylpyridin-4-yl)methoxy)nicotinonitrile] | < 500 nM | < 500 nM | < 500 nM
C=Cc1cc(Nc2cc(C#N)c(N3CCN(C(=O)CCOC)[C@H](C)C3)nc2C2CC2)c2cccnc2n1 [Compound 705, (R)-6-cyclopropyl-2-(4-(3-methoxypropanoyl)-3-methylpiperazin-1-yl)-5-(2-vinyl-1,8-naphthyridin-4-ylamino)nicotinonitrile] | < 500 nM | < 500 nM | < 500 nM
C=Cc1ccnc(Nc2cc(C#N)c(N3CCN(C(=O)CCOC)[C@H](C4CC4)C3)nc2C2CC2)c1 [Compound 706, (R)-6-cyclopropyl-2-(3-cyclopropyl-4-(3-methoxypropanoyl)piperazin-1-yl)-5-((4-vinylpyridin-2-yl)amino)nicotinonitrile] | < 500 nM | < 500 nM | < 500 nM
C=Cc1ccnc(Nc2cc(C#N)c(N3CCN(C(=O)CCO)[C@H](C)C3)nc2C2CC2)c1 [Compound 707, (R)-6-cyclopropyl-2-(4-(3-hydroxypropanoyl)-3-methylpiperazin-1-yl)-5-((4-vinylpyridin-2-yl)amino)nicotinonitrile] | < 500 nM | < 500 nM | < 500 nM
C=Cc1ccc2ccc(-c3cc(C#N)c(N4CCN(C(=O)C5CC5)[C@H](C5CC5)C4)nc3C3CC3)cc2n1 [Compound 709, (R)-2-(4-(cyclopropanecarbonyl)-3-cyclopropylpiperazin-1-yl)-6-cyclopropyl-5-(2-vinylquinolin-7-yl) nicotinonitrile] | < 500 nM | < 500 nM | < 500 nM
C=Cc1nccc2ccc(-c3cc(C#N)c(N4CCN(C(=O)C5CC5)[C@H](C5CC5)C4)nc3C3CC3)cc12 [Compound 710, (R)-2-(4-(cyclopropanecarbonyl)-3-cyclopropylpiperazin-1-yl)-6-cyclopropyl-5-(1-vinylisoquinolin-7-yl)nicotinonitrile] | < 500 nM | < 500 nM | < 500 nM
C=Cc1cc(Nc2cc(C#N)c(N3CCN(C(=O)COC)[C@H](C4CC4)C3)nc2C2CC2)ccn1 [Compound 711, (R)-6-cyclopropyl-2-(3-cyclopropyl-4-(2-methoxyacetyl)piperazin-1-yl)-5-((2-vinylpyridin-4-yl)amino)nicotinonitrile] | < 500 nM | < 500 nM | < 500 nM
C#Cc1ccnc(N(c2cc(C#C)ccn2)c2cc(C#N)c(N3CCN(C(=O)CCOC)[C@H](C)C3)nc2C2CC2)c1 [Compound 714, (R)-5-(bis(4-ethynylpyridin-2-yl)amino)-6-cyclopropyl-2-(4-(3-methoxypropanoyl)-3-methylpiperazin-1-yl)nicotinonitrile] | < 500 nM | < 500 nM | < 500 nM
C=Cc1cc(-c2cc(C#N)c(N3CCN(C(=O)COC)[C@H](C4CC4)C3)nc2C2CC2)cnn1 [Compound 715, (R)-6-cyclopropyl-2-(3-cyclopropyl-4-(2-methoxyacetyl)piperazin-1-yl)-5-(6-vinylpyridazin-4-yl)nicotinonitrile] | < 500 nM | < 500 nM | < 500 nM
C=Cc1cnnc(-c2cc(C#N)c(N3CCN(C(=O)CCO)[C@H](C4CC4)C3)nc2C2CC2)c1 [Compound 716, (R)-6-cyclopropyl-2-(3-cyclopropyl-4-(3-hydroxypropanoyl)piperazin-1-yl)-5-(5-vinylpyridazin-3-yl)nicotinonitrile] | < 500 nM | < 500 nM | < 500 nM
C=Cc1cc(-c2cc(C#N)c(N3CCN(C(=O)COC)[C@H](C4CC4)C3)nc2C2CC2)c2ccncc2n1 [Compound 717, (R)-6-cyclopropyl-2-(3-cyclopropyl-4-(2-methoxyacetyl)piperazin-1-yl)-5-(2-vinyl-1,7-naphthyridin-4-yl)nicotinonitrile] | < 500 nM | < 500 nM | < 500 nM
COCC(=O)N1CCN(c2nc(C3CC3)c(Nc3ccnc(Cl)c3)cc2C#N)C[C@H]1C1CC1 [Compound 718, (R)-5-((2-chloropyridin-4-yl)amino)-6-cyclopropyl-2-(3-cyclopropyl-4-(2-methoxyacetyl)piperazin-1-yl)nicotinonitrile] | < 500 nM | < 500 nM | 500 to 1000 nM
C=Cc1cc(-c2cc(C#N)c(N3CCN(C(=O)CCO)[C@H](C4CC4)C3)nc2C2CC2)nc(N)n1 [Compound 719, (R)-5-(2-amino-6-vinylpyrimidin-4-yl)-6-cyclopropyl-2-(3-cyclopropyl-4-(3-hydroxypropanoyl)piperazin-1-yl)nicotinonitrile] | < 500 nM | < 500 nM | < 500 nM
C=Cc1ccc2ccc(-c3cc(C#N)c(N4CCN(C(=O)CCO)[C@H](C5CC5)C4)nc3C3CC3)cc2n1 [Compound 720, (R)-6-cyclopropyl-2-(3-cyclopropyl-4-(3-hydroxypropanoyl)piperazin-1-yl)-5-(2-vinylquinolin-7-yl) nicotinonitrile] | < 500 nM | < 500 nM | < 500 nM
C=Cc1cc(-c2cc(C#N)c(N3CCN(C(=O)CCO)[C@H](C(C)C)C3)nc2C2CC2)ccn1 [Compound 721, (R)-2-cyclopropyl-6-(4-(3-hydroxypropanoyl)-3-isopropylpiperazin-1-yl)-2′-vinyl-3,4′-bipyridine-5-carbonitrile] | < 500 nM | < 500 nM | < 500 nM
C=Cc1cc(Nc2cc(C#N)c(N3CCN(C(=O)CCO)[C@H](C4CC4)C3)nc2C2CC2)c2ccncc2n1 [Compound 722, (R)-6-cyclopropyl-2-(3-cyclopropyl-4-(3-hydroxypropanoyl)piperazin-1-yl)-5-((2-vinyl-1,7-naphthyridin-4-yl)amino)nicotinonitrile] | < 500 nM | < 500 nM | < 500 nM
C=Cc1cnnc(-c2cc(C#N)c(N3CCN(C(=O)COC)[C@H](C4CC4)C3)nc2C2CC2)c1 [Compound 724, (R)-6-cyclopropyl-2-(3-cyclopropyl-4-(2-methoxyacetyl)piperazin-1-yl)-5-(5-vinylpyridazin-3-yl)nicotinonitrile] | < 500 nM | < 500 nM | < 500 nM
C=Cc1ccnc(Nc2c(C3CC3)nc(N3CCN(C(=O)CCO)[C@H](C4CC4)C3)c(C#N)c2C)c1 [Compound 725, (R)-6-cyclopropyl-2-(3-cyclopropyl-4-(3-hydroxypropanoyl)piperazin-1-yl)-4-methyl-5-((4-vinylpyridin-2-yl)amino)nicotinonitrile] | < 500 nM | < 500 nM | < 500 nM
C=Cc1cc(-c2cc(C#N)c(N3CCN(C(=O)COC)[C@H](C(C)C)C3)nc2C2CC2)ccn1 [Compound 726, (R)-2-cyclopropyl-6-(3-isopropyl-4-(2-methoxyacetyl)piperazin-1-yl)-2′-vinyl-3,4′-bipyridine-5-carbonitrile] | < 500 nM | < 500 nM | < 500 nM
